Tests used:
[1] = system: H3K27me3 or H3K9/14ac content at the promoters of INS-IGF2, NGN3 and PDX1 in human pancreatic ductal epithelial cells; assay: Quantitative PCR chromatin immunoprecipitation (q-PCR ChIP) after 2- and 7-day stimulation; format: cell-based; conditions: 2-day stimulation (FIG. 12b)
Protocol: Approximately 5×10^6 cells were fixed in 1% formaldehyde for 10 minutes, with a further 10-minute incubation in 0.125M glycine to quench the cross-linking reaction. The fixed cell pellet was lysed following resuspension and homogenization in sodium dodecyl (lauryl) sulphate (SOS) lysis buffer (1% SOS, 10 mM EDTA, 50 mM Tris-HCl pH 8.1) with a protease inhibitor cocktail (Roche Diagnostics GmBH, Mannheim, Germany) included. Samples were incubated on ice for 5 minutes following which sonication was performed to shear chromatin between 200-600 bp. Sonicated chromatin was resuspended in ChIP Dilution Buffer (0.01% SOS, 1.1% Triton X-100, 1.2 mM EDTA, 16.7 mM Tris-HCl pH 8.0 and 167 mM NaCl). 20 μl of DynabeadsR Protein A (Invitrogen, Carlsbad, CA, USA) was added to each sample and pre-cleared. Overnight incubation at 4° C. with H3K27me3 or H3K9/14ac antibody was used for immunoprecipitation of chromatin, as previously described. Immunoprecipitates were collected by magnetic isolation and washed sequentially with low salt and high salt buffers. Immunoprecipitated DNA was then eluted from solution with 0.1 M NaHCO3 containing 1% SIDS. Protein-DNA cross-links were reversed by incubation of samples in Proteinase K (Sigma, St. Louis, MO, USA) for 2 hours at 62° C. DNA was purified using a Qiagen MinElute column (Qiagen Inc., Valencia, CA, USA). H3K27me3 or H3K9/14ac content at the promoters of the INS-IGF2, NGN3 and PDX1 genes were assessed by qPCR using primers designed from the integrative ENCODE resource.

[2] = system: Human immortalised ductal cell line; assay: qRT-PCR gene expression in human immortalised ductal cell line; format: cell-based; conditions: ursolic acid 1, 2.5 or 5 μM; GSK126 5, 10 or 20 μM
Protocol: Human immortalised ductal cell line (Catalog #: T0018001, Addexbio) was cultured and assayed in Keratinocyte SFM (serum-free medium) (Catalog number 17005042, ThermoFisher Scientific, USA). Pharmacological inhibition of EZH2 and gene expression analysis were performed as described in Example 1.

Q: Which “H3K27me3 content of chromatin associated with NGN3 promoter” value [1] does the source give for `CC[C@H](C)n1cc(C)c2c(C(=O)NCc3c(C)cc(C)[nH]c3=O)cc(-c3ccc(N4CCNCC4)nc3)cc21` [GSK126, N-[(1,2-Dihydro-4,6-dimethyl-2-oxo-3-pyridinyl)methyl]-3-methyl-1-[(1S)-1-methylpropyl]-6-[6-(1-piperazinyl)-3-pyridinyl]-1H-indole-4-carboxamide] here?
A: The value was “significantly reduced”.

Q: What about the “H3K27me3 content of chromatin associated with PDX1 promoter” value [1] of the same compound?
A: The value was “significantly reduced”.

Q: And the “H3K27me3 content of chromatin associated with the INS promoter domain” value [1]?
A: The value was “significantly reduced”.

Q: What about the “Insulin mRNA expression” value [2] of the same compound?
A: Its value is “stimulated expression”.

Q: And the “Ngn3 mRNA expression” value [2]?
A: Its value is “stimulated expression”.

Q: What about the “Pdx1 mRNA expression” value [2] of the same compound?
A: The value was “stimulated expression”.

Source: patent US20250235486A1, “Method of Producing Insulin-Producing Cells” (Monash University, priority 2022, published 2025)
